This is an account of results in ChEMBL document CHEMBL2150848, “Artificial ladder-shaped polyethers that inhibit maitotoxin-induced Ca2+ influx in rat glioma C6 cells” (Bioorg Med Chem Lett, 2012).

Active and inactive are the calls of the source. No cut-off for these calls is given here.

The subject of series [1] is C6. Description: Inhibition of MTX-induced calcium influx in rat glioma C6 cells using 45CaCl2 incubated for 12 mins prior to MTX-challenge measured after 12 mins by scintillation counting. The series is classed as functional, cell-based.
In series [2] the test system is C6. Kind of series: Inhibition of MTX-induced calcium influx in rat glioma C6 cells using 45CaCl2 at 10 uM incubated for 12 mins prior to MTX-challenge measured after 12 mins by scintillation counting relative to untreated-control. The series is classed as functional.
In series [3] the test system is C6. Description: Inhibition of MTX-induced 45Ca2+ influx in rat glioma C6 cells. In kind it is functional, cell-based.
Series [4] deals with Mus musculus. Description: Toxicity in ip dosed mouse. The series is classed as organism-based. The settings on record: in vivo.

In the case of `C[C@@]12CC[C@@H]3O[C@@H]4C[C@@H]5O[C@@H]6C[C@H](O)[C@@H](CO)O[C@H]6CC[C@@]5(C)O[C@H]4C[C@H]3O[C@H]1C[C@H]1O[C@@H](CCOCc3ccccc3)[C@H](OCc3ccccc3)C[C@@H]1O2`, in series [1], the EC50 came to 2 µM and the inhibition result was “Dose-dependent effect”. Moreover, in series [2], the inhibition at 10 µM was determined as 80%. In turn, `C=C(C=O)C[C@@H]1C[C@H](O)[C@@H]2O[C@@H]3C[C@]4(C)O[C@@H]5/C=C\C[C@@H]6O[C@H]7[C@H](C/C=C\C[C@H]6O[C@H]5CCC[C@H]4O[C@H]3C[C@H]2O1)O[C@@H]1C[C@@H]2O[C@@H]3CC(=O)O[C@H]3C[C@@H](C)C[C@@]2(C)O[C@H]1C[C@@H]7C` [BREVETOXIN A] returned an EC50 in series [3] of 16 µM.

Take `C[C@@]12CC[C@@H]3O[C@@H]4C[C@@H]5O[C@@H]6C[C@@H]7O[C@]8(C)CC[C@@H]9O[C@H](CO)[C@@H](O)C[C@H]9O[C@H]8C[C@H]7O[C@H]6CC[C@@]5(C)O[C@H]4C[C@H]3O[C@H]1C[C@H]1O[C@@H](CCOCc3ccccc3)[C@H](OCc3ccccc3)C[C@@H]1O2`: the EC50 in series [1] was 15 µM. Turning to `C=C(C=O)C[C@@H]1C[C@H](O)[C@]2(C)O[C@@H]3C[C@@H]4O[C@@H]5C[C@]6(C)O[C@]7(C)CC[C@@H]8O[C@@H]9C[C@]%10(C)O[C@@H]%11C(C)=CC(=O)O[C@H]%11C[C@H]%10O[C@H]9C[C@@H](C)[C@H]8O[C@H]7C[C@H]6O[C@@]5(C)C/C=C\[C@H]4O[C@H]3C[C@H]2O1` [BREVETOXIN B], in series [1], the inhibition result was “Active”. Moreover, the EC50 in series [3] was determined as 13 µM. In series [4], `C=CC[C@H](C)[C@H](C)C[C@@H](O)[C@H](O)[C@@H]1CC[C@@]2(C)O[C@@]3(C)C[C@@]4(C)O[C@H]5/C=C\C[C@H]6O[C@H]7C[C@H]8O[C@H]9C[C@@]%10(C)O[C@@](C)([C@@H]%11CC[C@H]%12O[C@@]%13(C)C[C@H]%14O[C@@]%15(C)C[C@H]%16O[C@@]%17(C)C[C@@H](O)[C@H]([C@@H]%18O[C@H]%19[C@H](O)[C@@H](O)[C@H](C[C@H](O)C[C@@H](O)[C@@H]%20O[C@H]%21[C@H](O)[C@@H](O)[C@H]([C@@H]%22O[C@@H]%23[C@H](O)[C@H]%24O[C@H]%25C[C@H]%26O[C@@H](C[C@H](O)[C@@H](O)[C@H]%27O[C@H]%28[C@H](O)[C@H]%29O[C@H]%30C[C@H]%31O[C@H]%32[C@@H](O)[C@@H](O)[C@H]([C@H](C)[C@H](O)[C@H](C)CC[C@H](OS(=O)(=O)[O-])[C@H](O)[C@H](C)C[C@@H](O)C(=C)/C(C)=C/CO)O[C@@H]%32[C@H](O)C[C@]%31(C)O[C@@H]%30C[C@]%29(C)O[C@@H]%28C[C@H]%27O)[C@H](OS(=O)(=O)[O-])[C@H](O)[C@@H]%26O[C@@H]%25C[C@@H]%24O[C@H]%23[C@H](O)[C@H]%22O)O[C@H]%21C[C@H]%20O)O[C@H]%19C[C@H]%18O)O[C@@H]%17[C@H](O)[C@]%16(C)O[C@@H]%15CC[C@]%14(C)O[C@@H]%13C[C@@H]%12O%11)[C@H](O)C[C@@H]%10O[C@]9(C)CC[C@]8(C)O[C@]7(C)C[C@@H]6O[C@@H]5C[C@@H]4O[C@@H]3C[C@@H]2O1.[Na+].[Na+]` [MAITOTOXIN] registered an LD50 of 0.05 µg/kg.

As usually defined, the EC50 is the concentration at which the effect is half-maximal. As usually defined, the inhibition is the relative decrease from the control value, in per cent. Broadly, the LD50 is the dose at which mortality reaches 50%.
